Assay results taken from patent publication US8309557B2, “Pyrimidin-4-ylpropanedinitrile derivatives, processes for their preparation and their use as herbicides and plant growth regulators” (Bayer Intellectual Property GmbH, priority 2009, dated 2012).

Assays:
Assay type in all cases: in vivo
Viola tricolor [1] = assay: Herbicidal effect pre-emergence, VIOTR; conditions: 320 g/hectare, visual grading after 3 weeks vs untreated controls
Text: (§1) Seeds of mono- and dicotyledonous weed plants and crop plants are planted in wood-fiber pots in sandy loam and covered with earth. The compounds according to the invention, formulated in the form of wettable powders (WP) or as emulsion concentrates (EC), are then applied to the surface of the covering earth as aqueous suspension or emulsion at an application rate corresponding to 320 g/hectare at an application rate of 600 to 800 l of water/ha (converted) with the addition of 0.2% wetting agent.
(§2) Following treatment, the pots are placed in a greenhouse and kept under good growth conditions for the test plants. The visual grading of the damage to the test plants is carried out after a test time of 3 weeks in comparison to untreated controls (herbicidal effect in percent (%): 100% effect=plants have died off, 0% effect=as control plants).

[2] = test system: Tripleurospermum inodorum; assay: Herbicidal effect pre-emergence, MATIN; conditions: 320 g/hectare, visual grading after 3 weeks vs untreated controls
Text: as §1, §2

Amaranthus retroflexus [3] = assay: Herbicidal effect post-emergence, AMARE
Experimental: (§3) Seeds of mono- and dicotyledonous weed plants and crop plants are planted in wood-fiber pots in sandy loam, covered with earth and grown in a greenhouse under good growth conditions. 2 to 3 weeks after sowing, the test plants are treated in the single-leaf stage. The compounds according to the invention, formulated in the form of wettable powders (WP) or as emulsion concentrates (EC), are then sprayed onto the green plant parts as aqueous suspension or emulsion using an application rate of 600 to 800 l of water/ha (converted) with the addition of 0.2% by weight of wetting agent. After the test plants had been in the greenhouse for ca. 3 weeks under optimum growth conditions, the effect of the preparations is scored visually in comparison with untreated controls (herbicidal effect in percent (%): 100% effect=plants have died off, 0% effect=as control plants).

Veronica persica [4] = assay: Herbicidal effect pre-emergence, VERPE; conditions: 320 g/hectare, visual grading after 3 weeks vs untreated controls
Text: as §1, §2

Matricaria inodora = assay: Herbicidal effect post-emergence, MATIN
Experimental: as §3

Veronica persica [5] = assay: Herbicidal effect post-emergence, VERPE
Experimental: as §3

Echinochloa crus-galli = assay: Herbicidal effect post-emergence, ECHCG
Experimental: as §3

Abutilon theophrasti [6] = assay: Herbicidal effect post-emergence, ABUTH
Experimental: as §3

Abutilon theophrasti [7] = assay: Herbicidal effect pre-emergence, ABUTH; conditions: 320 g/hectare, visual grading after 3 weeks vs untreated controls
Text: as §1, §2

[8] = test system: Polygonum (Fallopia) convolvulus; assay: Herbicidal effect post-emergence, POLCO
Experimental: as §3

Amaranthus retroflexus [9] = assay: Herbicidal effect pre-emergence, AMARE; conditions: 320 g/hectare, visual grading after 3 weeks vs untreated controls
Text: as §1, §2

Alopecurus myosuroides = assay: Herbicidal effect pre-emergence, ALOMY; conditions: 320 g/hectare, visual grading after 3 weeks vs untreated controls
Text: as §1, §2

Ipomoea purpurea [10] = assay: Herbicidal effect post-emergence, PHBPU
Experimental: as §3

Setaria viridis [11] = assay: Herbicidal effect pre-emergence, SETVI; conditions: 320 g/hectare, visual grading after 3 weeks vs untreated controls
Text: as §1, §2

Viola tricolor [12] = assay: Herbicidal effect post-emergence, VIOTR
Experimental: as §3

Stellaria media = assay: Herbicidal effect post-emergence, STEME
Experimental: as §3

Setaria viridis [13] = assay: Herbicidal effect post-emergence, SETVI
Experimental: as §3

Ipomoea purpurea [14] = assay: Herbicidal effect pre-emergence, PHBPU; conditions: 320 g/hectare, visual grading after 3 weeks vs untreated controls
Text: as §1, §2

Lolium multiflorum = assay: Herbicidal effect pre-emergence, LOLMU; conditions: 320 g/hectare, visual grading after 3 weeks vs untreated controls
Text: as §1, §2

Row | SMILES | Effect in % in respect of stated plant, VIOTR (Viola tricolor [1]) [%] | Effect in % in respect of stated plant, MATIN [2] [%] | Effect in % in respect of stated plant, AMARE (Amaranthus retroflexus [3]) [%] | Effect in % in respect of stated plant, VERPE (Veronica persica [4]) [%] | Effect in % in respect of stated plant, MATIN (Matricaria inodora) [%] | Effect in % in respect of stated plant, VERPE (Veronica persica [5]) [%] | Effect in % in respect of stated plant, ECHCG (Echinochloa crus-galli) [%] | Effect in % in respect of stated plant, ABUTH (Abutilon theophrasti [6]) [%] | Effect in % in respect of stated plant, ABUTH (Abutilon theophrasti [7]) [%] | Effect in % in respect of stated plant, POLCO [8] [%] | Effect in % in respect of stated plant, AMARE (Amaranthus retroflexus [9]) [%] | Effect in % in respect of stated plant, ALOMY (Alopecurus myosuroides) [%] | Effect in % in respect of stated plant, PHBPU (Ipomoea purpurea [10]) [%] | Effect in % in respect of stated plant, SETVI (Setaria viridis [11]) [%] | Effect in % in respect of stated plant, VIOTR (Viola tricolor [12]) [%] | Effect in % in respect of stated plant, STEME (Stellaria media) [%] | Effect in % in respect of stated plant, SETVI (Setaria viridis [13]) [%] | Effect in % in respect of stated plant, PHBPU (Ipomoea purpurea [14]) [%] | Effect in % in respect of stated plant, LOLMU (Lolium multiflorum) [%]
1 | N.N#CC(C#N)c1nc(-c2ccc(Cl)c(C(F)(F)F)c2)nc(N)c1Cl [Compound 335] | 80 | 80 | 80 | 100 | 80 | – | – | – | – | – | – | – | – | – | – | – | – | – | –
2 | Cc1ccc(-c2nc(N)c(Cl)c(C(C#N)C#N)n2)cc1 [compound 12] | – | – | 90 | 100 | 80 | 90 | 80 | 80 | 80 | 80 | 100 | – | – | – | – | – | – | – | –
3 | N.N#CC(C#N)c1nc(-c2ccc(Cl)cc2F)nc(N)c1Cl [Compound 345] | 80 | 80 | 100 | 100 | 90 | 90 | – | – | 90 | 80 | 90 | 80 | 90 | 80 | 80 | 90 | – | – | –
4 | N#CC(C#N)c1nc(-c2ccc(Cl)cc2F)nc(N)c1Cl [compound 110] | 90 | – | 90 | 100 | 90 | 90 | 80 | – | – | 95 | 100 | – | 80 | 80 | 90 | 90 | 80 | – | –
5 | Cc1ccc(-c2nc(N)c(Cl)c(C(C#N)C#N)n2)c(F)c1F [compound 202] | – | – | 100 | 100 | 80 | – | 90 | 90 | – | 90 | 90 | – | – | – | – | – | – | 100 | –
6 | N#C[C-](C#N)c1nc(-c2ccc(Cl)cc2)nc(N)c1Cl.[Na+] [Ex. No. 304, Sodium [6-amino-5-chloro-2-(4-chlorophenyl)pyrimidin-4-yl](dicyano)methanide] | – | 80 | 100 | 100 | 90 | – | – | 80 | – | 80 | 90 | – | – | 80 | 80 | 80 | – | – | –
7 | CN(C)C.N#CC(C#N)c1nc(-c2ccc(Cl)cc2)nc(N)c1Cl [Compound 311] | 100 | 90 | 90 | 100 | 90 | 90 | 90 | 90 | 80 | 90 | 100 | – | – | 90 | 80 | 80 | 80 | – | –
8 | N#CC(C#N)c1nc(C2CC2)nc(N)c1F [compound 248] | – | 80 | 80 | 90 | 80 | 90 | – | – | – | – | – | – | – | – | – | 80 | – | 80 | –
9 | CNC.N#CC(C#N)c1nc(-c2ccc(Cl)cc2)nc(N)c1Cl [Compound 310] | 100 | 80 | 95 | 100 | 85 | 87 | 90 | 85 | – | 85 | 100 | – | 80 | 90 | 90 | 80 | 80 | – | –
10 | C[N+](C)(C)C.N#C[C-](C#N)c1nc(-c2ccc(Cl)cc2)nc(N)c1Cl [Compound 312] | 100 | – | 90 | 100 | 90 | 95 | 85 | 85 | – | 90 | 95 | – | – | 90 | 80 | 80 | 90 | – | –
11 | CC(C)c1nc(N)c(Cl)c(C(C#N)C#N)n1 [compound 265] | – | – | 100 | – | 90 | 90 | – | 80 | – | 90 | – | – | 100 | – | – | 90 | – | – | –
12 | CC(C)(C)c1nc(N)c(Cl)c(C(C#N)C#N)n1.N [compound 455] | 100 | – | – | – | – | – | – | – | – | – | – | – | – | – | – | – | – | – | 80
13 | N#CC(C#N)c1nc(-c2ccc(Br)cc2F)nc(N)c1Cl [compound 208] | – | – | 100 | 100 | 100 | 90 | – | 90 | 100 | 80 | 80 | – | 80 | 90 | 90 | 90 | – | – | –
14 | Cc1ccc(-c2nc(N)c(Cl)c(C(C#N)C#N)n2)c(F)c1F.N [Compound 387] | – | – | 100 | 100 | – | 80 | 90 | 90 | – | 100 | – | 80 | – | – | – | – | – | – | –
15 | CNc1nc(-c2ccc(Cl)cc2)nc(C(C#N)C#N)c1Cl [Ex. No. 41, [5-Chloro-2-(4-chlorophenyl)-6-(methylamino)pyrimidin-4-yl]propanedinitrile] | 100 | 80 | – | – | – | – | – | – | – | – | – | – | – | – | – | – | – | – | –
16 | Cc1ccc(-c2nc(N)c(Cl)c(C(C#N)C#N)n2)cc1.N [Compound 296] | – | – | 90 | 100 | 90 | 90 | 80 | 80 | 80 | – | 100 | – | – | – | – | – | – | – | –
